From article PMC3927474, “Whole body synthesis rates of DHA from α-linolenic acid are greater than brain DHA accretion and uptake rates in adult rats” (Journal of Lipid Research, 2014)

Tests used:
Assay in all cases: Brain gene expression (TLDA qPCR)
Assay type in all cases: in vivo, rat
Details in all cases: 15 wk diet; control diet = 1
PPARg = tested on: PPARg
Description: (§1) RNA was extracted from the flash-frozen half brains of the 15 week postweaning rats. The brain was briefly thawed and dissected to isolate the brainstem, cerebellum, cortex, hippocampus, striatum, and the rest of the brain. RNA was extracted from the brain regions using Trizol reagent (Ambion; Life Technologies, Burlington, ON, Canada) according to the manufacturer's protocol. […] Chloroform was added to the Trizol reagent at a ratio of 1:5 (chloroform:Trizol reagent) and the solution was mixed and incubated at room temperature. The solution was then centrifuged at 12,000 g for 15 min at 4°C. […] The samples were then centrifuged at 12,000 g for 10 min at 4°C to precipitate the RNA pellet. […] The pellet was allowed to air dry, and was then dissolved in RNase-free water. A Nanodrop 1000 (NanoDrop Technologies Inc., Wilmington, DE) was used to determine the concentration and purity of each sample by measuring absorbance at 260 and 280 nm. Each sample was aliquoted to make 1 μg of RNA per 10 μl of sample and stored at -80°C. A high-capacity cDNA reverse transcription kit (Applied Biosystems, Burlington, ON, Canada) was used to reverse transcribe 1 μg of RNA according to the manufacturer's instructions. Newly synthesized cDNA was stored at -20°C until the following day when it was loaded onto TaqMan low density array (TLDA) plates. Quantitative real-time PCR was performed using TLDA (Applied Biosystems) on the 7900HT real-time PCR system (Applied Biosystems). cDNA (50 ng) was diluted with water to make a volume of 50 μl and mixed with 50 μl of TaqMan Universal PCR Master Mix (Applied Biosystems). The mixture was then loaded onto a customized preconfigured 384-well TLDA plate according to the manufacturer's protocol. TaqMan gene expression assays were used to assess 21 genes that were previously reported to be differentially expressed with n-3 deprivation. […] All genes were normalized to phosphoglycerate kinase 1. Similar results were found when normalizing to β-actin or 18S rRNA.

transthyretin = tested on: transthyretin
Description: as §1

group 6 iPLA2 = tested on: group 6 iPLA2
Description: as §1

retnoid X receptor β = tested on: retnoid X receptor β
Description: as §1

group 2a sPLA2 = tested on: group 2a sPLA2
Description: as §1

[1] = tested on: prostaglandin E synthase 3
Description: as §1

uncoupling protein 2 = tested on: uncoupling protein 2
Description: as §1

15-lipoxygenase = tested on: 15-lipoxygenase
Description: as §1

TNF-α receptor member 1a = tested on: TNF-α receptor member 1a
Description: as §1

[2] = tested on: vesicular monoamine transporter 2
Description: as §1

retnoid X receptor α = tested on: retnoid X receptor α
Description: as §1

dopamine receptor D2 = tested on: dopamine receptor D2
Description: as §1

tyrosine hydroxylase = tested on: tyrosine hydroxylase
Description: as §1

heme oxygenase 1 = tested on: heme oxygenase 1
Description: as §1

retinoic acid receptor α = tested on: retinoic acid receptor α
Description: as §1

COX-2 = tested on: COX-2
Description: as §1

[3] = tested on: brain-derived neurotrophic factor
Description: as §1

CC/C=C\C/C=C\C/C=C\C/C=C\C/C=C\C/C=C\CCC(=O)O [DHA, Docosahexaenoic acid]
Brainstem gene expression: PPARg (PPARg): 1.11 RQ | Cerebellum gene expression: PPARg (PPARg): 1.07 RQ | Cortex gene expression: PPARg (PPARg): 1.36 RQ | Hippocampus gene expression: PPARγ (PPARg): 0.47 RQ | Rest of brain gene expression: PPARg (PPARg): 1.14 RQ | Striatum gene expression: PPARg (PPARg): 0.83 RQ | Brainstem gene expression: TTR (transthyretin): 0.46 RQ | Cerebellum gene expression: TTR (transthyretin): 0.72 RQ | Cortex gene expression: TTR (transthyretin): 1.49 RQ | Hippocampus gene expression: TTR (transthyretin): 2.40 RQ | Rest of brain gene expression: TTR (transthyretin): 1.08 RQ | Striatum gene expression: TTR (transthyretin): 0.66 RQ | Brainstem gene expression: iPLA2 (group 6 iPLA2): 1.10 RQ | Cerebellum gene expression: iPLA2 (group 6 iPLA2): 1.00 RQ | Cortex gene expression: iPLA2 (group 6 iPLA2): 1.09 RQ | Hippocampus gene expression: iPLA2 (group 6 iPLA2): 1.05 RQ | Rest of brain gene expression: iPLA2 (group 6 iPLA2): 1.10 RQ | Striatum gene expression: iPLA2 (group 6 iPLA2): 0.90 RQ | Brainstem gene expression: RXRb (retnoid X receptor β): 1.29 RQ | Cerebellum gene expression: RXRb (retnoid X receptor β): 0.96 RQ | Cortex gene expression: RXR b (retnoid X receptor β): 1.05 RQ | Hippocampus gene expression: RXR b (retnoid X receptor β): 1.07 RQ | Rest of brain gene expression: RXR b (retnoid X receptor β): 1.12 RQ | Striatum gene expression: RXRb (retnoid X receptor β): 1.02 RQ | Brainstem gene expression: sPLA2 (group 2a sPLA2): 1.10 RQ | Cerebellum gene expression: sPLA2 (group 2a sPLA2): 0.98 RQ | Cortex gene expression: spla2 (group 2a sPLA2): 1.17 RQ | Hippocampus gene expression: sPLA2 (group 2a sPLA2): 0.93 RQ | Rest of brain gene expression: sPLA2 (group 2a sPLA2): 1.17 RQ | Striatum gene expression: sPLA2 (group 2a sPLA2): 0.68 RQ | Brainstem gene expression: PGES3 [1]: 1.10 RQ | Cerebellum gene expression: PGES3 [1]: 0.97 RQ | Cortex gene expression: PGES3 [1]: 1.07 RQ | Hippocampus gene expression: PGES3 [1]: 1.11 RQ | Rest of brain gene expression: PGES3 [1]: 1.14 RQ | Striatum gene expression: PGES3 [1]: 0.92 RQ | Brainstem gene expression: UCP2 (uncoupling protein 2): 1.08 RQ | Cerebellum gene expression: UCP2 (uncoupling protein 2): 0.87 RQ | Cortex gene expression: UCP2 (uncoupling protein 2): 1.02 RQ | Hippocampus gene expression: UCP2 (uncoupling protein 2): 1.07 RQ | Rest of brain gene expression: UCP2 (uncoupling protein 2): 1.20 RQ | Striatum gene expression: UCP2 (uncoupling protein 2): 1.00 RQ | Brainstem gene expression: 15 LOX (15-lipoxygenase): 1.68 RQ | Cerebellum gene expression: 15 LOX (15-lipoxygenase): 1.35 RQ | Cortex gene expression: 15 LOX (15-lipoxygenase): 1.04 RQ | Hippocampus gene expression: 15 LOX (15-lipoxygenase): 0.96 RQ | Rest of brain gene expression: 15 LOX (15-lipoxygenase): 1.07 RQ | Striatum gene expression: 15 LOX (15-lipoxygenase): 1.46 RQ | Brainstem gene expression: TNFaR1a (TNF-α receptor member 1a): 1.21 RQ | Cerebellum gene expression: TNFaR1a (TNF-α receptor member 1a): 0.96 RQ | Cortex gene expression: TNFaR1a (TNF-α receptor member 1a): 1.10 RQ | Hippocampus gene expression: TNFa R 1a (TNF-α receptor member 1a): 0.99 RQ | Rest of brain gene expression: TNFaR1a (TNF-α receptor member 1a): 1.06 RQ | Striatum gene expression: TNFaR1a (TNF-α receptor member 1a): 0.88 RQ | Brainstem gene expression: VMAT2 [2]: 9.94 RQ | Hippocampus gene expression: VMAT 2 [2]: 1.26 RQ | Rest of brain gene expression: VMAT2 [2]: 1.08 RQ | Brainstem gene expression: RXRa (retnoid X receptor α): 1.02 RQ | Cerebellum gene expression: RXRa (retnoid X receptor α): 0.98 RQ | Cortex gene expression: RXR a (retnoid X receptor α): 1.03 RQ | Hippocampus gene expression: RXR a (retnoid X receptor α): 1.10 RQ | Rest of brain gene expression: RXR a (retnoid X receptor α): 1.17 RQ | Striatum gene expression: RXRa (retnoid X receptor α): 1.02 RQ | Brainstem gene expression: DR D2 (dopamine receptor D2): 0.88 RQ | Cerebellum gene expression: DR D2 (dopamine receptor D2): 1.09 RQ | Cortex gene expression: DR D2 (dopamine receptor D2): 1.12 RQ | Hippocampus gene expression: DR D2 (dopamine receptor D2): 0.95 RQ | Rest of brain gene expression: DR D2 (dopamine receptor D2): 1.05 RQ | Striatum gene expression: DR D2 (dopamine receptor D2): 0.98 RQ | Brainstem gene expression: TH (tyrosine hydroxylase): 0.98 RQ | Cerebellum gene expression: TH (tyrosine hydroxylase): 1.23 RQ | Cortex gene expression: TH (tyrosine hydroxylase): 1.11 RQ | Hippocampus gene expression: TH (tyrosine hydroxylase): 1.01 RQ | Rest of brain gene expression: TH (tyrosine hydroxylase): 1.18 RQ | Striatum gene expression: TH (tyrosine hydroxylase): 1.19 RQ | Brainstem gene expression: HO1 (heme oxygenase 1): 0.99 RQ | Cerebellum gene expression: HO1 (heme oxygenase 1): 0.99 RQ | Cortex gene expression: HO1 (heme oxygenase 1): 1.11 RQ | Hippocampus gene expression: HO1 (heme oxygenase 1): 1.03 RQ | Rest of brain gene expression: HO1 (heme oxygenase 1): 1.04 RQ | Striatum gene expression: HO1 (heme oxygenase 1): 0.94 RQ | Brainstem gene expression: RARa (retinoic acid receptor α): 1.52 RQ | Cerebellum gene expression: RARa (retinoic acid receptor α): 1.08 RQ | Cortex gene expression: RAR a (retinoic acid receptor α): 1.20 RQ | Hippocampus gene expression: RAR a (retinoic acid receptor α): 0.97 RQ | Rest of brain gene expression: RAR a (retinoic acid receptor α): 1.09 RQ | Striatum gene expression: RARa (retinoic acid receptor α): 0.93 RQ | Brainstem gene expression: COX 2 (COX-2): 3.34 RQ | Cerebellum gene expression: COX 2 (COX-2): 1.41 RQ | Cortex gene expression: COX 2 (COX-2): 1.29 RQ | Hippocampus gene expression: COX 2 (COX-2): 1.12 RQ | Rest of brain gene expression: COX 2 (COX-2): 1.21 RQ | Striatum gene expression: COX 2 (COX-2): 0.75 RQ | Brainstem gene expression: BDNF [3]: 1.19 RQ | Cerebellum gene expression: BDNF [3]: 0.88 RQ | Cortex gene expression: BDNF [3]: 1.16 RQ | Hippocampus gene expression: BDNF [3]: 1.13 RQ | Rest of brain gene expression: BDNF [3]: 0.99 RQ | Striatum gene expression: BDNF [3]: 2.10 RQ
